Measured values: paper PMC6459286, “Intestinal TGR5 agonism improves hepatic steatosis and insulin sensitivity in Western diet-fed mice” (American Journal of Physiology - Gastrointestinal and Liver …, 2019)
Marks after values point to notes of the source that are not given here.

What was measured:
gallbladder emptying = assay: Gallbladder emptying in mice; details: CD-1 mice, single oral dose; RDX8940 30 and 100 mg/kg, INT-777 30 mg/kg
[1] = system: intestinal L-cell hormones (aGLP-1, tGLP-1, tGLP-2, PYY); assay: Secretion of intestinal L-cell hormones in mice fed a standard diet; assay type: in vivo, C57BL/6 mice; details: repeat dosing 4 days, 8 h
Procedure: Adult male C57BL/6 mice (Taconic) fed standard chow (Harlan Teklad 2018) were dosed orally with vehicle (2% DMSO, 10% HPβCD, 10 mM PBS-HCl) or RDX8940 in separate experiments, as described below. After dosing, mice were anesthetized, and blood was collected via cardiac puncture into K3EDTA-containing tubes (Greiner Bio-one); then, the mice were euthanized. If active GLP-1 (aGLP-1) concentrations were measured, sitagliptin and aprotinin were added to the tubes before blood collection. Blood was processed to plasma for the measurement of incretins; aGLP-1, tGLP-1, and PYY concentrations were assessed using MSD immunoassays (Meso Scale Discovery), whereas total GLP-2 (tGLP-2) concentrations were quantified using a mouse GLP-2 ELISA (ALPCO, Salem, NH).
In the first experiment, mice were administered vehicle or a single dose of RDX8940 (10, 30, or 100 mg/kg), fasted, and plasma tGLP-1 concentrations were measured 8 h after dose. In a second experiment, mice were administered repeated doses of vehicle or RDX8940 30 mg/kg twice daily over 4 days. After the last dose, the mice were fasted and plasma tGLP-1 concentrations were measured 8 h later. […] After the single or last dose, the mice were fasted, and plasma concentrations of aGLP-1, tGLP-1, tGLP-2, and PYY were measured 8, 10, and 12 h later. […]

[2] = system: C57BL/6 mice fed Western diet; assay: Western diet-fed mice (NAFLD and mild insulin resistance model); assay type: in vivo; details: for 4-h fasted plasma glucose vs vehicle: days 15 and 29, agent alone
Procedure: Six-week-old male C57BL/6 mice (Taconic) were fed Western diet chow (Harlan Teklad TD.88137, 21.2% fat, 0.2% cholesterol, 42.0% kcal from fat) for 10 wk to model NAFLD and mild insulin resistance. […] An additional vehicle (administered orally twice daily) control group (lean) was fed standard chow (Harlan Teklad 2018) throughout the study (n = 10). […], mice were fasted for 4 h after the first dose, and blood was then collected via the tail vein for measurement of plasma glucose and insulin concentrations using a glucometer (Abbott Animal Health, Abbott Park, IL) and an MSD immunoassay (Meso Scale Discovery), respectively. On day 29, mice were fasted longer (a total of 7–8 h), were anesthetized, and had blood collected via cardiac puncture for the measurement of GLP-1 levels. Mice were then euthanized under anesthesia for the collection of liver tissue. Hepatic triglyceride and cholesterol content were determined at the University of California, Davis, CA, using the Folch method ([17]).

C57BL/6 mice fed HFCD = assay: GLP-1 and GLP-2 agonists in HFCD-fed mice; assay type: in vivo; details: for Plasma glucose: 4-h fasted; for Plasma glucose / Plasma total cholesterol / Plasma triglycerides: day 28, means ± SE; for Plasma total bilirubin levels: data not shown; for Body weight: day 33, liraglutide 200 µg/kg or teduglutide 400 µg/kg sc twice daily, means ± SE; for Plasma insulin: day 34, means ± SE; for HFCD-increased hepatic expression of genes involved in inflammation and fibrotic processes: liver RNA sequencing
Procedure: At 19 wk old, mice began treatment. […] Mice were weighed each week. Before treatment and on days 14 and 28 of treatment, the mice were fasted for 4 h, and blood was then collected via the tail vein and processed to plasma for measurement of alanine aminotransferase (ALT), aspartate aminotransferase (AST), alkaline phosphatase (AP), glucose, triglycerides, and total cholesterol using an ACE Axcel clinical analyzer (Alfa Wassermann, West Caldwell, NJ). After 34 days of treatment, the mice were fasted for 6–8 h and were euthanized under anesthesia. Blood was collected and processed to plasma for measurement of insulin [using an MSD immunoassay (Meso Scale Discovery)], and ALT, AST, AP, and total bilirubin levels [using an ACE Axcel clinical analyzer (Alfa Wassermann)]. The entire liver was collected and weighed, and samples of liver were weighed for measurement of triglycerides and total cholesterol levels at University of California, Davis, CA [using the Folch method ([17])]; histological assessments of steatosis, inflammation, and fibrosis were performed using hematoxylin-and-eosin stains, and Sirius red stains (Wax-it Histology Services, Vancouver, BC, Canada and Pacific Tox Path, Ellensburg, WA). Scoring of hepatic pathology was conducted according to descriptions provided by Thoolen et al. ([32]). For gene expression studies, total RNA from mouse liver tissues was isolated using a RNeasy 96 universal tissue kit (Qiagen, Hilden, Germany). A gene expression library was prepared with 100 ng of each RNA sample using a TruSeq Stranded mRNA Library NeoPrep kit (Illumina, Hayward, CA). Library samples were subsequently multiplexed and sequenced using an Illumina NextSeq 500 sequencer (San Diego, CA). Sequences of two 75-base pair ends were obtained for all samples and mapped to the mouse transcriptome, using STAR (Spliced Transcripts Alignment to a Reference) alignment with default parameters (Basespace Cloud, Illumina) and normalized using trimmed mean of M-values method in EdgeR software (Bioconductor; https://www.bioconductor.org/). Differentiation gene expression analysis was evaluated using EdgeR. R platform (https://www.r-project.org/) was used for principal component analysis and heat map analysis. Gene ontology and network correlation analysis were performed using Gorilla (http://cbl-gorilla.cs.technion.ac.il/) and WGNCA (https://horvath.genetics.ucla.edu/html/CoexpressionNetwork/Rpackages/WGCNA/).

MDCK cell monolayers = assay: MDCK bidirectional permeability assay
Caco-2 cell monolayers = assay: Caco-2 bidirectional permeability assay
P-gp = assay: MDCK bidirectional permeability assay; details: dog; for recovery: + verapamil 100 μM
[3] = Caco-2 bidirectional permeability assay; details: human, Caco-2; for recovery: Caco-2, Recovery

INT-777
Gallbladder emptying (gallbladder weight, egg yolk vs saline) (gallbladder emptying): inhibition of gallbladder emptying

CC#CCn1c(N2CCC[C@@H](N)C2)nc2c1c(=O)n(Cc1nc(C)c3ccccc3n1)c(=O)n2C [linagliptin]
aGLP-1 levels in the portal vein vs vehicle ([1]; monotherapy (RDX8940 30 mg/kg b.i.d.; linagliptin 10 mg/kg q.d.)): did not significantly affect
Systemic concentrations of aGLP-1 vs vehicle ([1]; monotherapy): did not significantly increase
4-h fasted plasma insulin vs vehicle ([2]; day 29, agent alone): lowered
4-h fasted plasma glucose vs vehicle [2]: lowered

liraglutide
Hepatic total cholesterol content vs vehicle (C57BL/6 mice fed HFCD): significantly decreased
Hepatic triglyceride content vs vehicle (C57BL/6 mice fed HFCD): significantly decreased
Hepatic weight vs vehicle (C57BL/6 mice fed HFCD): significantly decreased
Plasma ALT levels vs vehicle (C57BL/6 mice fed HFCD): significantly decreased
Plasma AP levels vs vehicle (C57BL/6 mice fed HFCD): significantly decreased
Plasma AST levels vs vehicle (C57BL/6 mice fed HFCD): significantly decreased
Plasma glucose (C57BL/6 mice fed HFCD): 185 ± 13 mg/dL
Plasma total bilirubin levels (C57BL/6 mice fed HFCD): Neither liraglutide nor teduglutide significantly affected
Plasma total cholesterol (C57BL/6 mice fed HFCD): 230 ± 16 mg/dL
Plasma triglycerides (C57BL/6 mice fed HFCD): 59 ± 3 mg/dL
Body weight (C57BL/6 mice fed HFCD): 31.4 ± 0.8 g
Plasma insulin (C57BL/6 mice fed HFCD): 0.40 ± 0.11 ng/mL
HFCD-increased hepatic expression of genes involved in inflammation and fibrotic processes (C57BL/6 mice fed HFCD): abrogated this effect in many cases
Fibrosis score (C57BL/6 mice fed HFCD; median): 2
Microvesicular steatosis score (C57BL/6 mice fed HFCD; median): 0.5 ^****
4-h fasted plasma insulin vs vehicle ([2]; day 29, agent alone): lowered
Hepatic triglyceride levels ([2]; day 29, agent alone, RDX8940 P < 0.001): reduced
Hepatic cholesterol levels ([2]; day 29, agent alone, RDX8940 P < 0.01): reduced
Liver weight ([2]; day 29, agent alone, RDX8940 P < 0.05): reduced
4-h fasted plasma glucose vs vehicle [2]: lowered

CC(C)NCC(O)COc1cccc2ccccc12 (stereo not shown) [Propranolol]
Papp A→B (MDCK cell monolayers; 10 μM, without verapamil): 14.19 cm/s × 10^−6
Papp B→A (MDCK cell monolayers; 10 μM, without verapamil): 7.03 cm/s × 10^−6
Recovery, B→A (MDCK cell monolayers; + verapamil 100 μM): 98%
Recovery, A→B (Caco-2 cell monolayers; Caco-2): 56%
Recovery, B→A (Caco-2 cell monolayers; Caco-2): 78%
Papp A→B (Caco-2 cell monolayers; Caco-2, 10 μM): 67.06 cm/s × 10^−6
Papp B→A (Caco-2 cell monolayers; Caco-2, 10 μM): 19.62 cm/s × 10^−6

COc1cc2c(c(OC)c1OC)-c1ccc(OC)c(=O)cc1[C@@H](NC(C)=O)CC2 [Colchicine]
Papp A→B at 10 µM (P-gp): 0.85 ×10⁻⁶ cm/s
Papp B→A at 10 µM (P-gp): 2.31 ×10⁻⁶ cm/s
efflux ratio at 10 µM (P-gp): 2.72
recovery (P-gp; A→B): 120%
recovery (P-gp; B→A): 113%
Papp A→B at 10 µM [3]: 0.23 ×10⁻⁶ cm/s
Papp B→A at 10 µM [3]: 6.18 ×10⁻⁶ cm/s
efflux ratio at 10 µM [3]: 27.4
recovery ([3]; A→B): 69%
recovery ([3]; B→A): 80%

CNC(=C[N+](=O)[O-])NCCSCc1ccc(CN(C)C)o1 [Ranitidine]
Papp A→B at 10 µM [3]: 0.91 ×10⁻⁶ cm/s
Papp B→A at 10 µM [3]: 3.02 ×10⁻⁶ cm/s
efflux ratio at 10 µM [3]: 3.34
recovery ([3]; A→B): 78%
recovery ([3]; B→A): 87%

teduglutide
Hepatic total cholesterol content vs vehicle (C57BL/6 mice fed HFCD): significantly decreased
Hepatic triglyceride content vs vehicle (C57BL/6 mice fed HFCD): significantly decreased
Hepatic weight vs vehicle (C57BL/6 mice fed HFCD): significantly decreased
Plasma ALT levels vs vehicle (C57BL/6 mice fed HFCD): significantly decreased
Plasma AP levels vs vehicle (C57BL/6 mice fed HFCD): significantly decreased
Plasma AST levels vs vehicle (C57BL/6 mice fed HFCD): significantly decreased
Plasma glucose (C57BL/6 mice fed HFCD): 205 ± 5 mg/dL
Plasma total bilirubin levels (C57BL/6 mice fed HFCD): Neither liraglutide nor teduglutide significantly affected
Plasma total cholesterol (C57BL/6 mice fed HFCD): 279 ± 16 mg/dL
Plasma triglycerides (C57BL/6 mice fed HFCD): 84 ± 1 mg/dL
Body weight (C57BL/6 mice fed HFCD): 37.9 ± 0.9 g
Plasma insulin (C57BL/6 mice fed HFCD): 0.95 ± 0.20 ng/mL
HFCD-increased hepatic expression of genes involved in inflammation and fibrotic processes (C57BL/6 mice fed HFCD): abrogated this effect in many cases
Fibrosis score (C57BL/6 mice fed HFCD; median): 2
Macrovesicular steatosis score (C57BL/6 mice fed HFCD; median): 2.00 ^*
Microvesicular steatosis score (C57BL/6 mice fed HFCD; median): 2.0

CC(CCc1ccccc1)NCC(O)c1ccc(O)c(C(N)=O)c1 (stereo not shown) [Labetalol]
Papp A→B at 10 µM [3]: 19.4 ×10⁻⁶ cm/s
Papp B→A at 10 µM [3]: 31.6 ×10⁻⁶ cm/s
recovery ([3]; A→B): 64%
recovery ([3]; B→A): 80%
